biological target: T1, KRAS G12C 1-169, his-tagged protein, GDP-loaded (Homo sapiens, UniProt P01116, G12C); assay: Covalent binding (% modification) to KRAS G12C by mass spectrometry; conditions: % modification at 10 min (footnote †)
T1 construct: KRAS G12C 1-169, his-tagged protein, GDP-loaded
Protocol: Test compounds were prepared as 10 mM stock solutions in DMSO (Fisher cat # BP-231-100). KRAS G12C 1-169, his-tagged protein, GDP-loaded was diluted to 2 μm in buffer (20 mM Hepes, 150 mM NaCl, 1 mM MgCl2). Compounds were tested for activity as follows:
Compounds were diluted to 50× final test concentration in DMSO in 96-well storage plates. Compound stock solutions were vortexed before use and observed carefully for any sign of precipitation. Dilutions were as follow: • For 100 μM final compound concentration, compounds were diluted to 5000 μM (5 μl 10 mM compound stock+5 μl DMSO and mixed well by pipetting. • For 30 μM final compound concentration, compounds were diluted to 1500 μM (3 μl 10 mM compound stock+17 μl DMSO) and mixed well by pipetting. • For 10 μM final compound concentration, compounds were diluted to 500 μM (2 μl 10 mM compound stock+38 μl DMSO) and mixed well by pipetting. 49 μl of the stock protein solution was added to each well of a 96-well PCR plate (Fisher cat #1423027). 1 μl of the diluted 50× compounds were added to appropriate wells in the PCR plate using 12-channel pipettor. Reactions were mixed carefully and thoroughly by pipetting up/down with a 200·1 multi-channel pipettor. […] 5 μl of 2% formic acid (Fisher cat # A117) in DI H2O was then added to each well followed by mixing with a pipette. The plate was then resealed with aluminum seal and stored on dry ice until analyzed as described below.
The above described assays were analyzed by mass spectrometry according to one of the following two procedures:
The MS instrument is set to positive polarity, 2 GHz resolution, and low mass (1700) mode and allowed to equilibrate for 30 minutes. The instrument is then calibrated, switched to acquisition mode and the appropriate method loaded.
After another 30 minute equilibration time, a blank batch (i.e., buffer) is run to ensure equipment is operating properly. The samples are thawed at 37° C. for 10 minutes, briefly centrifuged, and transfer to the bench top. Wells A1 and H12 are spiked with 1 uL 500 uM internal standard peptide, and the plates centrifuged at 2000×g for 5 minutes. The method is then run and masses of each individual well recorded.
The masses (for which integration data is desired) for each well are pasted into the platemap and exported from the analysis. Masses for the internal standards are exported as well. The data at 50 ppm is extracted for the +19 charge state, and identity of well A1 is assigned using the internal standard spike and integrated. Peak data is exported as a TOF list and the above steps are repeated individually, for the +20, 21, 22, 23, 24, and 25 charge states.
The masses and peak intensities of KRAS G12C protein species were measured using a Dionex RSLCnano system (Thermo Scientific) connected to a Q Exactive Plus mass spectrometer (Thermo Scientific).
[…] of sample was each loaded onto a Aeris™ 3.6 μm WIDEPORE C4 200 Å, LC Column 50×2.1 mm column maintained at 40° C. at a flow rate of 600 μl min^−1 with […] (0.1% formic acid in acetonitrile). The liquid chromatography conditions were 20% solvent B for 1 min, 20% to 60% solvent B for 1.5 min, 60% to 90% solvent for 0.5 min, 90% solvent B for 0.2 min, 90% to 20% solvent B for 0.2 min, and then equilibrated for 1.6 min before the following sample injection. The flow rate was maintained at 600 μl min^−1 throughout the sample analysis.
The mass spectrometer was operated in profile mode at a resolution of 17500, 5 microscans, using 50 msec max injection time and an AGC target of 1e6, and a full mass range from 800-1850 m/z was recorded. The HCD trapping gas was optimized for maximum sensitivity for intact proteins. The ionization method was electrospray ionization, which used a spray voltage of 4 kV, sheath gas flow set to 50 au, auxiliary gas flow set to 10 au and sweep gas flow set to 1 au. […]

Compound | Binding %
C[C@@H]1CN(c2nc(N3CC(N(C)C)C3)nc3c(F)c(-c4c(O)cccc4F)c(Cl)cc23)[C@@H](C)CN1C(=O)C1CO1 (stereo partly drawn) [Compound 115, ((2R,5S)-4-(6-chloro-2-(3-(dimethylamino)azetidin-1-yl)-8-fluoro-7-(2-fluoro-6-hydroxyphenyl)quinazolin-4-yl)-2,5-dimethyl-piperazin-1-yl) (oxiran-2-yl) methanone] | + (+ indicates binding activity greater than 0% and up to 50%)

same assay, conditions: covalent binding to KRAS G12C after a three minute incubation period

Compound | Binding %
C=CC(=O)N1C[C@H](C)N(c2nc(N3CC(N(C)CC)C3)nc3c(F)c(-c4c(O)cccc4F)c(Cl)cc23)C[C@H]1C [Compound 98, 1-((2R,5S)-4-(6-chloro-2-(3-(ethyl(methyl)amino)azetidin-1-yl)-8-fluoro-7-(2-fluoro-6-hydroxyphenyl)quinazolin-4-yl)-2,5-dimethyl-piperazin-1-yl) prop-2-en-1-one] | ++ (++ indicates binding activity from 50 to 90%)
C=CC(=O)N1C[C@H](C)N(c2nc(OCCCN3CCC(F)(F)C3)nc3c(F)c(-c4cc(O)cc5ccccc45)c(Cl)cc23)C[C@H]1C [Compound 221, 1-((2R,5S)-4-(6-chloro-2-(3-(3,3-difluoropyrrolidin-1-yl)propoxy)-8-fluoro-7-(3-hydroxynaphthalen-1-yl)quinazolin-4-yl)-2,5-dimethyl-piperazin-1-yl) prop-2-en-1-one] | + (+ indicates binding activity greater than 0% and up to 50%)
C=CC(=O)N1C[C@H](C)N(c2nc(OCCCN(C)C)nc3c(F)c(-c4c(O)cccc4F)c(Cl)cc23)C[C@H]1C [Compound 172, 1-((2R,5S)-4-(6-chloro-2-(3-(dimethylamino)propoxy)-8-fluoro-7-(2-fluoro-6-hydroxyphenyl)quinazolin-4-yl)-2,5-dimethyl-piperazin-1-yl) prop-2-en-1-one] | +++ (+++ indicates binding activity greater than 90%)
C=CC(=O)N1C[C@H](C)N(c2nc(N3CC4(CCCN(C)C4)C3)nc3c(F)c(-c4c(O)cccc4F)c(Cl)cc23)C[C@H]1C [Compound 183, 1-((2R,5S)-4-(6-chloro-8-fluoro-7-(2-fluoro-6-hydroxyphenyl)-2-(6-methyl-2,6-diazaspiro[3.5]nonan-2-yl)quinazolin-4-yl)-2,5-dimethyl-piperazin-1-yl) prop-2-en-1-one] | ++ (++ indicates binding activity from 50 to 90%)
C=CC(=O)N1C[C@H](C)N(c2nc(N3CC(N(C)C)C3)nc3c(F)c(-c4c(C)ccc5cn[nH]c45)c(Cl)cc23)C[C@H]1C [Compound 187, 1-((2R,5S)-4-(6-chloro-2-(3-(dimethylamino)azetidin-1-yl)-8-fluoro-7-(6-methyl-1H-indazol-7-yl)quinazolin-4-yl)-2,5-dimethyl-piperazin-1-yl) prop-2-en-1-one] | +++ (+++ indicates binding activity greater than 90%)
C=CC(=O)N1C[C@H](C)N(c2nc(Oc3ccnn3C)nc3c(F)c(-c4cc(O)cc5ccccc45)c(Cl)cc23)C[C@H]1C [Compound 205, 1-((2R,5S)-4-(6-chloro-8-fluoro-7-(3-hydroxy-naphthalen-1-yl)-2-((1-methyl-1H-pyrazol-5-yl)oxy)quinazolin-4-yl)-2,5-dimethyl-piperazin-1-yl) prop-2-en-1-one] | ++ (++ indicates binding activity from 50 to 90%)
C=CC(=O)N1C[C@H](C)N(c2nc(N3CC(N(C)C)C3)nc3c(F)c(-c4c(C)ccc5[nH]ncc45)c(C(F)(F)F)cc23)C[C@H]1C [Compound 189, 1-((2R,5S)-4-(2-(3-(dimethylamino)azetidin-1-yl)-8-fluoro-7-(5-methyl-1H-indazol-4-yl)-6-(trifluoromethyl)quinazolin-4-yl)-2,5-dimethyl-piperazin-1-yl) prop-2-en-1-one] | +++ (+++ indicates binding activity greater than 90%)
C=CC(=O)N1C[C@H](C)N(c2nc(N3CC(N(C)C)C3)nc3c(F)c(-c4ccccc4F)c(Cl)cc23)C[C@H]1C [Compound 132, 1-((2R,5S)-4-(6-chloro-2-(3-(dimethylamino)azetidin-1-yl)-8-fluoro-7-(2-fluorophenyl)quinazolin-4-yl)-2,5-dimethyl-piperazin-1-yl) prop-2-en-1-one] | ++ (++ indicates binding activity from 50 to 90%)
C=CC(=O)N1C[C@H](C)N(c2nc(OCCN3CC(F)(F)C3)nc3c(F)c(-c4c(C)ccc5cn[nH]c45)c(Cl)cc23)C[C@H]1C [Compound 112, 1-((2R,5S)-4-(6-chloro-2-(2-(3,3-difluoroazetidin-1-yl)ethoxy)-8-fluoro-7-(6-methyl-1H-indazol-7-yl)quinazolin-4-yl)-2,5-dimethyl-piperazin-1-yl) prop-2-en-1-one] | ++ (++ indicates binding activity from 50 to 90%)
C=CC(=O)N1C[C@H](C)N(c2nc(OCCCN(C)C)nc3c(F)c(-c4cc(O)cc5ccccc45)c(Cl)cc23)C[C@H]1C [Compound 181, 1-((2R,5S)-4-(6-chloro-2-(3-(dimethylamino)propoxy)-8-fluoro-7-(3-hydroxy-naphthalen-1-yl)quinazolin-4-yl)-2,5-dimethyl-piperazin-1-yl) prop-2-en-1-one] | +++ (+++ indicates binding activity greater than 90%)
C=CC(=O)N1CCN(c2nc(CNCc3ncccn3)nc3c(F)c(-c4c(O)cccc4F)c(Cl)cc23)C[C@H]1C [Compound 95, 1-((2R)-4-(6-chloro-8-fluoro-7-(2-fluoro-6-hydroxyphenyl)-2-(((pyrimidin-2-ylmethyl)amino)methyl)quinazolin-4-yl)-2-methyl-piperazin-1-yl) prop-2-en-1-one] | ++ (++ indicates binding activity from 50 to 90%)
C=CC(=O)N1C[C@H](C)N(c2nc(N3CC(N(C)C)C3)nc3c(F)c(-c4cc(O)cc5ccccc45)c(Cl)cc23)C[C@H]1C (atropisomer, axis not shown) [Compound 220, 1-((2R,5S)-4-(6-chloro-2-(3-(dimethylamino)azetidin-1-yl)-8-fluoro-7-((R)-3-hydroxynaphthalen-1-yl)quinazolin-4-yl)-2,5-dimethyl-piperazin-1-yl) prop-2-en-1-one] | + (+ indicates binding activity greater than 0% and up to 50%)
C=CC(=O)N1C[C@H](C)N(c2nc(N3CC(N(CC)CC)C3)nc3c(F)c(-c4c(C)ccc5[nH]ncc45)c(Cl)cc23)C[C@H]1C (atropisomer, axis not shown) [Compound 151, 1-((2R,5S)-4-(6-chloro-2-(3-(diethylamino)azetidin-1-yl)-8-fluoro-7-((R)-5-methyl-1H-indazol-4-yl)quinazolin-4-yl)-2,5-dimethyl-piperazin-1-yl) prop-2-en-1-one] | +++ (+++ indicates binding activity greater than 90%)
C=CC(=O)N1CCN(c2nc(CN(C)Cc3ncccn3)nc3c(F)c(-c4c(O)cccc4F)c(Cl)cc23)C[C@H]1C [Compound 91, 1-((2R)-4-(6-chloro-8-fluoro-7-(2-fluoro-6-hydroxyphenyl)-2-((methyl (pyrimidin-2-yl-methyl)amino)methyl)quinazolin-4-yl)-2-methyl-piperazin-1-yl) prop-2-en-1-one] | + (+ indicates binding activity greater than 0% and up to 50%)
C=CC(=O)N1C[C@H](C)N(c2nc(Oc3ccnn3C)nc3c(F)c(-c4c(O)cccc4F)c(Cl)cc23)C[C@H]1C [Compound 208, 1-((2R,5S)-4-(6-chloro-8-fluoro-7-(2-fluoro-6-hydroxyphenyl)-2-((1-methyl-1H-pyrazol-5-yl)oxy)quinazolin-4-yl)-2,5-dimethyl-piperazin-1-yl) prop-2-en-1-one] | +++ (+++ indicates binding activity greater than 90%)

Source: US10646488B2 (Araxes Pharma LLC, priority 2016, dated 2020)
